Data reported in paper PMC7932537, “Quantitative profiling of protease specificity” (PLoS Computational Biology, 2021).

Columns and labels:
MMP-9 = MMP-9 (Homo sapiens, UniProt P14780); test: K(obs) of individual phage substrates (set of 1369); format: biochemical; settings: MMP9
MMP-2 [1] = target: T1, MMP-2 (Homo sapiens, UniProt P08253); test: as above; format: biochemical; settings: MMP2
T1 sequence (P08253 110-660): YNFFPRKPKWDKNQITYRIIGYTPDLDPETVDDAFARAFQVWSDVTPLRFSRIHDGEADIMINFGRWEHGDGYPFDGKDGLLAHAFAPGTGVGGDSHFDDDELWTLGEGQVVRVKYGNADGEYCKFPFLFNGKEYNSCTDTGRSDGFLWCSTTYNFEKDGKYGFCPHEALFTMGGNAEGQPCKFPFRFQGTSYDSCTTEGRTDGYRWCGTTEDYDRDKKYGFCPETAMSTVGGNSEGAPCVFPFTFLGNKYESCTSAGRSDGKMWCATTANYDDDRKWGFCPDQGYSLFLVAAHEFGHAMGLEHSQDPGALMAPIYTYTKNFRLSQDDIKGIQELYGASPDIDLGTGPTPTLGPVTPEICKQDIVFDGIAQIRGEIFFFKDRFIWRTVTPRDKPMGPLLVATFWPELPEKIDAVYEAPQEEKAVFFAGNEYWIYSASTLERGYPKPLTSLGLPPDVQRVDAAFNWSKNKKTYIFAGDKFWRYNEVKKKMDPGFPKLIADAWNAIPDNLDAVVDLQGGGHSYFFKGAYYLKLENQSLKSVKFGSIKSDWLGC

MMP-2 [2] = test: Substrate phage display with NGS: relative probability (RP) of P3-P1' tetramer clusters; format: biochemical, human; settings: MMP2;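 note: ratio of tetramer probability after protease selection to that in naive phage library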
[3] = individual phage substrates, set of 1369 peptides, hyphen in sequence marks cleavage position
[4] = individual phage substrates, set of 1369 peptides, cleavage position marked by hyphen in sequence
[5] = RP of the P3-P1' tetramer contained in the substrate (substrate phage display with NGS)
[6] = individual phage substrate of the set of 1369 peptides, dash in the sequence marks the cleavage position
[7] = individual phage substrate of the set of 1369 peptides, cleavage position marked by '-'
[8] = RP of the P3-P1' tetramer contained in the substrate

Chain of MMP-9 (P14780 94-707): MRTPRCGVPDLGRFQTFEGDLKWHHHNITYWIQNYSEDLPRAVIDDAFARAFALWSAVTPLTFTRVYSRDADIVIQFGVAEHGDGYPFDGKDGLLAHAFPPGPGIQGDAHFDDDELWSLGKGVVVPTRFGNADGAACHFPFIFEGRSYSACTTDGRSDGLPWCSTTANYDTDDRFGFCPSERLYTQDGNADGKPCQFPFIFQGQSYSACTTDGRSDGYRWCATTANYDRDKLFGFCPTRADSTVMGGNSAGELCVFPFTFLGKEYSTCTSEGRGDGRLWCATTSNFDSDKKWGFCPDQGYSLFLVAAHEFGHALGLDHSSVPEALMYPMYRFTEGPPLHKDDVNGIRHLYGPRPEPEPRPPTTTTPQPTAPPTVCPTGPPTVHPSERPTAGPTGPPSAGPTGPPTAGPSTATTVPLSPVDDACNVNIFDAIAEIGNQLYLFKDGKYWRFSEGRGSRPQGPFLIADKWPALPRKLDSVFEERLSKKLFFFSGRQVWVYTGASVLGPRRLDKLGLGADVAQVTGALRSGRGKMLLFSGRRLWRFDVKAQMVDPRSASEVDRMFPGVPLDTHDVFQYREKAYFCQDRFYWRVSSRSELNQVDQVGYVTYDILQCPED

| Substance | Kobs (MMP-9; [3]) [M⁻¹ s⁻¹] | Kobs (MMP-2 [1]; [4]) [M⁻¹ s⁻¹] | relative probability (RP) (MMP-2 [2]; [5]) | Kobs (MMP-9; [6]) [M⁻¹ s⁻¹] | Kobs (MMP-2 [1]; [7]) [M⁻¹ s⁻¹] | relative probability (RP) (MMP-2 [2]; [8]) |
| --- | --- | --- | --- | --- | --- | --- |
| GKLAS-LRTAS | 84.609 | 10866.7 | 31.1996 | – | – | – |
| GKLKH-LQTAS | 0 | 726.013 | 11.1441 | – | – | – |
| GKMFH-LITAS | 142.481 | 292.668 | 0.052 | – | – | – |
| GKPAS-LDTAS | 0 | 1239.69 | 36.4285 | – | – | – |
| GKVEY-LVTAS | 0 | 0 | 5.301 | – | – | – |
| GKVSE-LITAS | 142.481 | 231.616 | 24.0996 | – | – | – |
| GLAWG-LYTAS | 2409.72 | 2916.17 | 17.7408 | – | – | – |
| GLGLN-LTASG | 231.616 | 355.093 | 0.5789 | – | – | – |
| GLLLN-MTASG | 517.582 | 1711.63 | 13.7728 | – | – | – |
| GLPDF-LTASG | 0 | 0 | 1.02 | – | – | – |
| GLPLN-WRTAS | 3964.21 | 2545.25 | 28.8158 | – | – | – |
| GLPMH-LTASG | – | – | – | 10866.7 | 7386.83 | 30.095 |
| GLPTA-LRTAS | 5667.28 | 12792.1 | 32.8941 | – | – | – |
| GLPYA-LYTAS | 12792.1 | 12792.1 | 33.2554 | – | – | – |
| GMAQY-LTASG | 762.325 | 4205.91 | 7.443 | – | – | – |
| GMARF-LSTAS | 912.511 | 2097.28 | 8.577 | – | – | – |
| GMAWG-LRTAS | 7815.03 | 8941.32 | 17.7408 | – | – | – |
| GMPRY-MTASG | – | – | – | 12792.1 | 4335.13 | 28.0367 |

| Substance | Kobs (MMP-9; [3]) [M⁻¹ s⁻¹] | Kobs (MMP-2 [1]; [4]) [M⁻¹ s⁻¹] | relative probability (RP) (MMP-2 [2]; [5]) | Kobs (MMP-9; [6]) [M⁻¹ s⁻¹] | Kobs (MMP-2 [1]; [7]) [M⁻¹ s⁻¹] | relative probability (RP) (MMP-2 [2]; [8]) |
| --- | --- | --- | --- | --- | --- | --- |
| GMPWS-VTASG | 6131.32 | 1513.13 | 0.3793 | – | – | – |
| GMVFS-IYTAS | – | – | – | 2097.28 | 690.17 | 0.2237 |
| GMVQH-LITAS | – | – | – | 585.336 | 10866.7 | 22.9738 |
| GNAIH-LQTAS | – | – | – | 0 | 1196.62 | 13.4941 |
| GNPLP-QMTAS | 1870.4 | 2157.02 | 24.381 | – | – | – |
| GNPYK-LTASG | – | – | – | 8941.32 | 1196.62 | 15.5683 |
| GNSWG-LRTAS | – | – | – | 690.17 | 292.668 | 0.1389 |
| GNVAN-LTASG | 1327.88 | 12792.1 | 34.9662 | – | – | – |
| GNVRN-LITAS | 7386.83 | 12792.1 | 29.2567 | – | – | – |
| GNVRS-LITAS | – | – | – | 2476.66 | 12792.1 | 12.3051 |
| GPVYN-LRTAS | – | – | – | 12792.1 | 5269.78 | 19.1818 |
| GQARG-LQTAS | – | – | – | 1660.66 | 3253.29 | 25.9476 |
| GQPRG-LRTAS | – | – | – | 12792.1 | 12792.1 | 35.2511 |
| GQPRS-WRTAS | – | – | – | 8941.32 | 9740.44 | 32.796 |
| GQQMS-LRTAS | 0 | 56.119 | 0.2763 | – | – | – |
| GQVDY-LMTAS | 0 | 0 | 1.426 | – | – | – |
| GRAAW-LQTAS | 1465.65 | 12792.1 | 28.6088 | – | – | – |
